Assay results taken from US20240082416A1, “AMATOXIN ANALOGS AND USES THEREOF” (THE UNIVERSITY OF BRITISH COLUMBIA, priority 2020, published 2024).
Starred links: 1 amine or outer side, 2 acyl side, 3 side chain; linkers in the order of their positions; H or OH if unused. Positions of bridges follow the written chain, without caps; N, C: chain ends. Non-standard residues stand in square brackets, D forms with d. Residues, ends and D or L forms follow the SMILES beside them. Trp(2-yl) = O=C([C@H](Cc1c([*:3])[nH]c2ccccc12)N[*:1])[*:2]; Pro(trans-4-guanidino) = N=C(N)N[C@H]1CN[C@H](C(=O)O)C1; Pro(4R-SH) = O=C([C@@H]1C[C@@H](S[*:3])CN1[*:1])[*:2]; Ile(4R-OH,5-OH) = C[C@H]([C@H](N)C(=O)O)[C@@H](O)CO; X1 = N#C[C@@H]1C[C@@H](C(=O)[*:2])N([*:1])C1; Pro(4R-NH2) = N[C@H]1CN[C@H](C(=O)O)C1

Assay: Cell viability assay (BrdU incorporation) on HEK293-OATP1B3 cells
Assay type: cell-based, human
Details: human, HEK293 cells overexpressing OATP1B3 (HEK293-OATP1B3); highest used concentration of 1 μM; HEK293-OATP1B3 cells
Experimental: . HEK293 and HEK-OATP1B3 cells were plated at 2.5×10^3 cells/well in a 1:1 mixture of Ham's F12 with DMEM containing 10% charcoal-stripped fetal calf serum (FCS) onto poly-D-lysine-coated 96-well plates and grown for 24 hours. Subsequently, cells were incubated with amanitin analogs at 8 different concentrations (1×10^−6 M to 1.28×10^−11 M, serial 1:5 dilutions). Following 96 h of drug exposure, cell viability was determined by a BrdU incorporation assay (Cell Proliferation ELISA, BrdU, Roche) and chemiluminescence was measured using a FLUOstar Optima plate reader (BMG LABtech). Data analysis was performed with GraphPad Prism 8 (GraphPad Software, Inc., La Jolla, CA) software to plot curve fits.

SMILES | viability at 96 h, 1 µM [%]
CC[C@H](C)[C@@H]1NC(=O)CNC(=O)[C@@H]2Cc3c([nH]c4ccccc34)SC[C@H](NC(=O)CNC1=O)C(=O)N[C@@H](CC(N)=O)C(=O)N1C[C@H](NC(=N)N)C[C@H]1C(=O)N[C@@H]([C@@H](C)[C@@H](O)CO)C(=O)N2 [Compound 7, Gdn-Pro-amanitin] (cyclo(CN[Pro(trans-4-guanidino)][Ile(4R-OH,5-OH)][Trp(2-yl)]GIG); thioether 1-5) | 86
CC[C@H](C)[C@@H]1NC(=O)CNC(=O)[C@@H]2Cc3c([nH]c4ccccc34)SC[C@H](NC(=O)CNC1=O)C(=O)N[C@@H](CC(N)=O)C(=O)N1C[C@H](N)C[C@H]1C(=O)N[C@@H]([C@@H](C)[C@@H](O)CO)C(=O)N2 [Compound 6, NH2-Pro-amanitin] (cyclo(CN[Pro(4R-NH2)][Ile(4R-OH,5-OH)][Trp(2-yl)]GIG); thioether 1-5) | 33
CC[C@H](C)[C@@H]1NC(=O)CNC(=O)[C@@H]2Cc3c([nH]c4ccccc34)SC[C@H](NC(=O)CNC1=O)C(=O)N[C@@H](CC(N)=O)C(=O)N1C[C@H](C#N)C[C@H]1C(=O)N[C@@H]([C@@H](C)[C@@H](O)CO)C(=O)N2 [Compound 4, CN-Pro-amanitin] (cyclo(CN[X1][Ile(4R-OH,5-OH)][Trp(2-yl)]GIG); thioether 1-5) | 43
CC[C@H](C)[C@@H]1NC(=O)CNC(=O)[C@@H]2Cc3c([nH]c4ccccc34)SC[C@H](NC(=O)CNC1=O)C(=O)N[C@@H](CC(N)=O)C(=O)N1C[C@H](S)C[C@H]1C(=O)N[C@@H]([C@@H](C)[C@@H](O)CO)C(=O)N2 [Compound 5, SH-Pro-amanitin] (cyclo(CN[Pro(4R-SH)][Ile(4R-OH,5-OH)][Trp(2-yl)]GIG); thioether 1-5) | 50
